Publication PMC10182601, “Biological evaluation of novel gemcitabine analog in patient-derived xenograft models of pancreatic cancer” (BMC Cancer, 2023)
Where a name gives a salt, the structure may show the parent alone.

Tests used:
PPCL-192 cells [1] = assay: Cell cycle distribution (PI, flow cytometry), PPCL-192; format: cell-based, human; conditions: 24 h
Procedure: Cell cycle study was performed to determine the effect of 4NSG-SLN on the cell cycle; PPCL-192 and PPCL-46 cells (2 × 10^5 cells per well) were seeded in 6-well plates and cultured using DMEM medium supplemented with 10% FBS10 mM HEPES, 10% FBS, and 1% penicillin/streptomycin were seeded in 6-well plates and incubated at 37 °C. After the cells reached 75% confluence, they were exposed to different concentrations (5 μM,10 μM, and 20 µM) of GemHCl and 4NSG-SLN. After 24 h exposure, cells were harvested, washed with PBS, centrifuged at 300 × g for 5 min, resuspended the pellets in 100 μL of PBS, and passed through a 28 5/8 needle to disperse them into single cells. Fixation and permeation of cells were performed using cold 70% ethanol while vortexing. Cells were then stored at − 20 °C overnight. The cells were resuspended in 0.1 mg/mL RNase, stained with […] PI, and the phase distribution was examined using flow cytometry (FACScalibur-Becton Dickinson).

PPCL-192 cells [2] = assay: Cell migration (wound) assay, PPCL-192; format: cell-based, human; conditions: PPCL-192, 5 µM, 48 h
Procedure: (§1) A cell migration assay was conducted to determine the effect of 4NSG-SLN on PPCL-192 and PPCL-46 cell motility. The Ibidi cell culture inserts were used to grow the cells into two confluent monolayers separated by a "wound" for this assay. The cells were seeded into 24-well plates at a cell density of 2.5 × 10^5, 48 h at 37 °C. At 75% confluency, cells formed adherent monolayers on either side of the tissue culture insert. Before treatment, the cells were serum-starved by replacing complete media with base media (DMEM) and then further incubated for 48 h. After serum starvation, the inserts were gently removed to generate a gap or "wound" between the two confluent layers of cells, and the monolayers were washed with experimental media. Afterward, cells were exposed to 5 μM concentration of GemHCl and 4NSG-SLN treatments. Images of the cells invading the wound were then captured after 48 h with a Nikon Ti Eclipse microscope.

PPCL-46 cells = assay: Cell migration (wound) assay, PPCL-46; format: cell-based, human; conditions: PPCL-46, 5 µM, 48 h
Procedure: as §1

[3] = test system: PCa PDX tumor from White patients; assay: Tumor efficacy in PDX mice bearing tumors from White PCa patients; format: in vivo; conditions: 30 mg/kg Gem equivalent i.v. twice weekly for 3 weeks
Description: The implantation of surgical tumor tissue into immuno-compromised mice was described previously. A viable portion of resected tissue 2 × 2 mm in size was briefly isolated immediately from surgically resected primary PCa specimens (from Blacks and White patients) with care to minimize critical ischemia time. The PCa tissues were then implanted subcutaneously into an 8-week-old mouse (The Jackson Laboratory, Bar Harbor, ME). The xenografts were allowed to grow to a maximum diameter of 1.5 cm before passage and in vitro culture.
Mice-bearing surgically implanted tumors obtained from Black and White patients with sizes of 70–100 mm^3 were randomized into groups as control, GemHCl, and 4NSG-SLN (n = 5/group). Baseline tumor volume was established, and dosing initiation began on day 1 with intravenous administration of 30 mg/kg Gem (twice weekly for 3 weeks) with an equivalent dose of GemHCl and 4NSG-SLN [42]. Once tumors became palpable, their volume was measured thrice per week, and the mice's weight was recorded twice weekly. Tumor volumes were measured using digital calipers and calculated using the following equation: V = (L*(W)^2)/2, where V is the volume (mm^3), W(width) is the smaller of two perpendicular tumor axes, and the L (length) is the larger of two vertical axes. Mean tumor volume growth curves were calculated for each treatment group.

EGFR = assay: Immunohistochemistry of PDX tumor tissue, EGFR; format: in vivo, mice; conditions: for EGFR % Moderate Positive Cells / EGFR % Positive / EGFR % Strong Positive Cells / EGFR % Weak Positive Cells / EGFR %Negative Cells / EGFR H Score: IHC
Procedure: [The source words this procedure for another target and reports this target under the same test.] (§2) Tissue samples from mice bearing tumors from Black and White PCa patients post treatments with GemHCl and 4NSG-SLN were excised and immediately washed with PBS, fixed (10% buffered formalin) for 24 h, and transferred to 70% ethanol for histopathological analysis. Histology was performed by HistoWiz Inc. (Histowiz.com) according to manufacturer protocol. Samples were embedded in paraffin, and 4 μm sections were prepared. Immunohistochemistry was performed on a Bond Rx autostainer (Leica Biosystems) with enzyme treatment (1:1000) using standard protocols (https://home.histowiz.com/faq/). Samples were incubated overnight with primary antibodies (Antibodies used were rat monoclonal F4/80 primary antibody (eBioscience, 14–4801, and 1:200), and immunohistochemical staining was done using rabbit anti-rat secondary (Vector Labs, 1:100). Bond Polymer Refine Detection was used per the manufacturer's protocol (Leica Biosystems). After staining, sections were dehydrated and filmed, coverslipped using a Tissue-Tek Prisma coverslip (Sakura). Whole slide scanning (40x) was performed on an Aperio AT2 (Leica Biosystems).

HER2 = assay: Immunohistochemistry of PDX tumor tissue, HER2; format: in vivo, mice
VEGFR = assay: Immunohistochemistry of PDX tumor tissue, VEGFR; format: in vivo, mice; conditions: for VEGF % Moderate Positive Cells / VEGF % Positive / VEGF % Weak Positive Cells / VEGF H Score / VEGF % Strong Positive Cells: IHC
Procedure: [The source words this procedure for another target and reports this target under the same test.] as §2

[4] = BT PDX tumor tissue after treatment
[5] = BT and WT PDX tumor tissues, 40X
[6] = WT PDX tumor tissue after treatment
[7] = BT PDX tumor tissue after treatment, IHC
[8] = WT PDX tumor tissue after treatment, IHC

In the case of Nc1ccn([C@@H]2O[C@H](CO)[C@@H](O)C2(F)F)c(=O)n1 [GemHCl, Gemcitabine hydrochloride], the “%G1” value (PPCL-192 cells [1]; PPCL-192, 5 μM) is reported as 71.08%, the “%G2” value (PPCL-192 cells [1]; PPCL-192, 5 μM) is reported as 11.05% and the “%S” value (PPCL-192 cells [1]; PPCL-192, 5 μM) is reported as 17.87%. The “%G1” value (PPCL-192 cells [1]; PPCL-192, 10 μM) was 74.75%, the “%G2” value (PPCL-192 cells [1]; PPCL-192, 10 μM) was 9.59% and the “%S” value (PPCL-192 cells [1]; PPCL-192, 10 μM) was 15.66%. For the same compound, the “%G1” value (PPCL-192 cells [1]; PPCL-192, 20 μM) was 79.91%, the “%G2” value (PPCL-192 cells [1]; PPCL-192, 20 μM) was 8.23% and the “%S” value (PPCL-192 cells [1]; PPCL-192, 20 μM) was 11.86%. The “Number of cells migrated” value (PPCL-192 cells [2]) was 84 ± 3.1, the “Number of cells migrated” value (PPCL-46 cells) was 120 ± 3.8 and the “Mean terminal tumor volume” value ([3]; day 0, WT (patient tumor) PDX mice) was 0 mm^3. The “Mean terminal tumor volume” value ([3]; day 1, WT PDX mice) was 13.9 ± 2 mm^3, the “Mean terminal tumor volume” value ([3]; day 3, WT PDX mice) was 27.8 ± 4 mm^3 and the “Mean terminal tumor volume” value ([3]; day 5, WT PDX mice) was 39.7 ± 5 mm^3. For the same compound, the “Mean terminal tumor volume” value ([3]; day 7, WT PDX mice) was 43.5 ± 16 mm^3, the “Mean terminal tumor volume” value ([3]; day 9, WT PDX mice) was 177.8 ± 60 mm^3 and the “Mean terminal tumor volume” value ([3]; day 11, WT PDX mice) was 583.2 ± 227 mm^3. The “Mean terminal tumor volume” value ([3]; day 13, WT PDX mice) was 646.9 ± 240 mm^3, the “Mean terminal tumor volume” value ([3]; day 15, WT PDX mice) was 752.6 ± 241 mm^3 and the “Mean terminal tumor volume” value ([3]; day 17, WT PDX mice) was 850.8 ± 205 mm^3. For the same compound, the “Mean terminal tumor volume” value ([3]; day 19, WT PDX mice) was 868.2 ± 294 mm^3, the “Mean terminal tumor volume” value ([3]; day 21, WT PDX mice) was 1053 ± 86 mm^3 and the “Mean terminal tumor volume” value ([3]; day 23, WT PDX mice) was 1344.7 ± 171 mm^3. The “Mean terminal tumor volume” value ([3]; day 25, WT PDX mice) was 1748.2 ± 223 mm^3, the “EGFR % Moderate Positive Cells” value (EGFR; [4]) was 0.6 ± 0.2% and the “EGFR % Positive” value (EGFR; [4]) was 25 ± 4.5%. For the same compound, the “EGFR % Strong Positive Cells” value (EGFR; [4]) was 0.5 ± 0.1%, the “EGFR % Weak Positive Cells” value (EGFR; [4]) was 1.4 ± 0.1% and the “EGFR %Negative Cells” value (EGFR; [4]) was 72.5 ± 1.5%. The “EGFR H Score” value (EGFR; [4]) was 3.0, the “EGFR expression in representative IHC images” value (EGFR; [5]) was “moderate to high” and the “EGFR % Moderate Positive Cells” value (EGFR; [6]) was 3.1 ± 2.1%. For the same compound, the “EGFR % Positive” value (EGFR; [6]) was 20 ± 10%, the “EGFR % Strong Positive Cells” value (EGFR; [6]) was 2.3 ± 1.5% and the “EGFR % Weak Positive Cells” value (EGFR; [6]) was 2.7 ± 0.7%. The “EGFR %Negative Cells” value (EGFR; [6]) was 71.9 ± 1.6%, the “EGFR H Score” value (EGFR; [6]) was 22.1 and the “HER2 % Moderate Positive Cells” value (HER2; [7]) was 7.2 ± 4.3%. For the same compound, the “HER2 % Positive” value (HER2; [7]) was 17.2 ± 1.0%, the “HER2 % Strong Positive Cells” value (HER2; [7]) was 3.7 ± 0.8% and the “HER2 % Weak Positive Cells” value (HER2; [7]) was 9.3 ± 1.4%. For the same compound, the “HER2 %Negative Cells” value (HER2; [7]) was 62.6 ± 3.4%, the “HER2 H Score” value (HER2; [7]) was 31.8 and the “HER2 expression in representative IHC images” value (HER2; [5]) was “moderate to high”. The “HER2 % Positive” value (HER2; [8]) was 19.9 ± 1.5%, the “HER2 % Strong Positive Cells” value (HER2; [8]) was 3.6 ± 1.2% and the “HER2 % Weak Positive Cells” value (HER2; [8]) was 8.9 ± 0.8%. For the same compound, the “HER2 %Negative Cells” value (HER2; [8]) was 57.4 ± 7.3%, the “HER2 H Score” value (HER2; [8]) was 30.9 and the “VEGF % Moderate Positive Cells” value (VEGFR; [4]) was 0.6 ± 0.2%. For the same compound, the “VEGF % Positive” value (VEGFR; [4]) was 27 ± 0.4%, the “VEGF % Weak Positive Cells” value (VEGFR; [4]) was 1.2 ± 0.3% and the “VEGF H Score” value (VEGFR; [4]) was 4.7. The “VEGF % Strong Positive Cells” value (VEGFR; BT PDX tumor tissue after treatment, first line of this name (r21)) was 0.5 ± 0.1%, the “VEGF % Strong Positive Cells” value (VEGFR; BT PDX tumor tissue after treatment, second line of this name (r22)) was 70.7 ± 7.8% and the “VEGFR expression in representative IHC images” value (VEGFR; [5]) was “moderate to high”. For the same compound, the “VEGF % Moderate Positive Cells” value (VEGFR; [6]) was 0.6 ± 0.1%, the “VEGF % Positive” value (VEGFR; [6]) was 30 ± 1.4% and the “VEGF % Weak Positive Cells” value (VEGFR; [6]) was 0.7 ± 0.3%. The “VEGF H Score” value (VEGFR; [6]) was 10.0, the “VEGF % Strong Positive Cells” value (VEGFR; WT PDX tumor tissue after treatment, first line of this name (r21)) was 0.7 ± 0.3% and the “VEGF % Strong Positive Cells” value (VEGFR; WT PDX tumor tissue after treatment, second line of this name (r22)) was 68 ± 3.8%.
